Results: patent US10624897B2, “Chlorobenzene substituted azaaryl compounds” (TAIPEI MEDICAL UNIVERSITY, priority 2015, dated 2020)

What was measured:
Test in all cases: Kinase binding assay (Kd)
[1] = molecular target: T1, AXL (Homo sapiens, UniProt P30530)
T1 construct: made in house; host or cells: E. coli BL21-derived host (T7 phage) or HEK-293
Procedure: (§1) Kinase assays. For most assays, kinase-tagged T7 phage strains were prepared in an E. coli host derived from the BL21 strain. E. coli were grown to log-phase and infected with T7 phage and incubated with shaking at 32° C. until lysis. The lysates were centrifuged and filtered to remove cell debris. The remaining kinases were produced in HEK-293 cells and subsequently tagged with DNA for qPCR detection. […] The liganded beads were blocked with excess biotin and washed with blocking buffer (SeaBlock (Pierce), 1% BSA, 0.05% Tween 20, 1 mM DTT) to remove unbound ligand and to reduce non-specific binding. […] All reactions were performed in polystyrene 96-well plates in a final volume of 0.135 ml. […] The kinase concentration in the eluates was measured by qPCR.
(§2) An 11-point 3-fold serial dilution of each test compound was prepared in 100% DMSO at 100× final test concentration and subsequently diluted to 1× in the assay (final DMSO concentration=1%). Most Kds were determined using a compound top concentration=30,000 nM.
(§3) Binding constants (Kds) were calculated with a standard dose-response curve using the Hill equation: […]
(§4) The Hill Slope was set to −1. Curves were fitted using a non-linear least square fit with the Levenberg-Marquardt algorithm.

[2] = molecular target: T2, IGF1R (Homo sapiens, UniProt P08069)
T2 construct: made in house; host or cells: E. coli BL21-derived host (T7 phage) for most kinases, HEK-293 for the rest
Procedure: as §1, §2, §3, §4

[3] = molecular target: T3, ERK1 (Homo sapiens, UniProt P27361)
T3 construct: made in house; host or cells: E. coli BL21-derived host (T7 phage) for most kinases, HEK-293 for the rest
Procedure: as §1, §2, §3, §4

[4] = molecular target: T4, ROCK2 (Homo sapiens, UniProt O75116)
T4 construct: made in house; host or cells: E. coli BL21-derived host (T7 phage) or HEK-293
Procedure: as §1, §2, §3, §4

[5] = molecular target: T5, TSSK1B (Homo sapiens, UniProt Q9BXA7)
T5 construct: made in house; host or cells: E. coli BL21-derived host (T7 phage) or HEK-293
Procedure: as §1, §2, §3, §4

[6] = molecular target: T6, CDK3 (Homo sapiens, UniProt Q00526)
T6 construct: made in house; host or cells: E. coli BL21-derived host (T7 phage) or HEK-293
Procedure: as §1, §2, §3, §4

[7] = molecular target: T7, MEK2 (Homo sapiens, UniProt P36507)
T7 construct: made in house; host or cells: E. coli BL21-derived host (T7 phage) for most kinases, HEK-293 for the rest
Procedure: as §1, §2, §3, §4

[8] = molecular target: T8, FGFR1 (Homo sapiens, UniProt P11362)
T8 construct: made in house; host or cells: E. coli BL21-derived host (T7 phage) or HEK-293
Procedure: as §1, §2, §3, §4

[9] = molecular target: T9, MKNK1 (Homo sapiens, UniProt Q9BUB5)
T9 construct: made in house; host or cells: E. coli BL21-derived host (T7 phage) for most kinases, HEK-293 for the rest
Procedure: as §1, §2, §3, §4

[10] = molecular target: T10, PIK3CA (Homo sapiens, UniProt P42336)
T10 construct: made in house; host or cells: E. coli BL21-derived host (T7 phage) for most kinases, HEK-293 for the rest
Procedure: as §1, §2, §3, §4

[11] = molecular target: T11, GSK3B (Homo sapiens, UniProt P49841)
T11 construct: made in house; host or cells: E. coli BL21-derived host (T7 phage) for most kinases, HEK-293 for the rest
Procedure: as §1, §2, §3, §4

[12] = molecular target: T12, YANK3 (Homo sapiens, UniProt Q86UX6)
T12 construct: made in house; host or cells: E. coli BL21-derived host (T7 phage) or HEK-293
Procedure: as §1, §2, §3, §4

[13] = molecular target: T13, p38-alpha (Homo sapiens, UniProt Q16539)
T13 construct: made in house; host or cells: E. coli BL21-derived host (T7 phage) for most kinases, HEK-293 for the rest
Procedure: as §1, §2, §3, §4

[14] = molecular target: T14, PIM2 (Homo sapiens, UniProt Q9P1W9)
T14 construct: made in house; host or cells: E. coli BL21-derived host (T7 phage) for most kinases, HEK-293 for the rest
Procedure: as §1, §2, §3, §4

[15] = molecular target: T15, TGFBR1 (Homo sapiens, UniProt P36897)
T15 construct: made in house; host or cells: E. coli BL21-derived host (T7 phage) or HEK-293
Procedure: as §1, §2, §3, §4

[16] = molecular target: T16, CSNK1D (Homo sapiens, UniProt P48730)
T16 construct: made in house; host or cells: E. coli BL21-derived host (T7 phage) or HEK-293
Procedure: as §1, §2, §3, §4

[17] = molecular target: T17, FLT3 (Homo sapiens, UniProt P36888)
T17 construct: made in house; host or cells: E. coli BL21-derived host (T7 phage) or HEK-293
Procedure: as §1, §2, §3, §4

[18] = molecular target: T18, ACVR1B (Homo sapiens, UniProt P36896)
T18 construct: made in house; host or cells: E. coli BL21-derived host (T7 phage) or HEK-293
Procedure: as §1, §2, §3, §4

[19] = molecular target: T19, FAK (Homo sapiens, UniProt Q05397)
T19 construct: made in house; host or cells: E. coli BL21-derived host (T7 phage) for most kinases, HEK-293 for the rest
Procedure: as §1, §2, §3, §4

[20] = molecular target: T20, PDGFRA (Homo sapiens, UniProt P16234)
T20 construct: made in house; host or cells: E. coli BL21-derived host (T7 phage) for most kinases, HEK-293 for the rest
Procedure: as §1, §2, §3, §4

[21] = molecular target: T21, PDGFRB (Homo sapiens, UniProt P09619)
T21 construct: made in house; host or cells: E. coli BL21-derived host (T7 phage) or HEK-293
Procedure: as §1, §2, §3, §4

[22] = molecular target: T22, AKT2 (Homo sapiens, UniProt P31751)
T22 construct: made in house; host or cells: E. coli BL21-derived host (T7 phage) or HEK-293
Procedure: as §1, §2, §3, §4

[23] = molecular target: T23, MEK1 (Homo sapiens, UniProt Q02750)
T23 construct: made in house; host or cells: E. coli BL21-derived host (T7 phage) for most kinases, HEK-293 for the rest
Procedure: as §1, §2, §3, §4

[24] = molecular target: T24, EPHA2 (Homo sapiens, UniProt P29317)
T24 construct: made in house; host or cells: E. coli BL21-derived host (T7 phage) for most kinases, HEK-293 for the rest
Procedure: as §1, §2, §3, §4

[25] = molecular target: T25, AKT1 (Homo sapiens, UniProt P31749)
T25 construct: made in house; host or cells: E. coli BL21-derived host (T7 phage) or HEK-293
Procedure: as §1, §2, §3, §4

[26] = molecular target: T26, MKNK2 (Homo sapiens, UniProt Q9HBH9)
T26 construct: made in house; host or cells: E. coli BL21-derived host (T7 phage) for most kinases, HEK-293 for the rest
Procedure: as §1, §2, §3, §4

[27] = molecular target: T27, INSR (Homo sapiens, UniProt P06213)
T27 construct: made in house; host or cells: E. coli BL21-derived host (T7 phage) for most kinases, HEK-293 for the rest
Procedure: as §1, §2, §3, §4

[28] = molecular target: T28, ERBB4 (Homo sapiens, UniProt Q15303)
T28 construct: made in house; host or cells: E. coli BL21-derived host (T7 phage) for most kinases, HEK-293 for the rest
Procedure: as §1, §2, §3, §4

[29] = molecular target: T29, MLK1 (Homo sapiens, UniProt P80192)
T29 construct: made in house; host or cells: E. coli BL21-derived host (T7 phage) for most kinases, HEK-293 for the rest
Procedure: as §1, §2, §3, §4

[30] = molecular target: T30, ADCK3 (Homo sapiens, UniProt Q8NI60)
T30 construct: made in house; host or cells: E. coli BL21-derived host (T7 phage) or HEK-293
Procedure: as §1, §2, §3, §4

[31] = molecular target: T31, BTK (Homo sapiens, UniProt Q06187)
T31 construct: made in house; host or cells: E. coli BL21-derived host (T7 phage) or HEK-293
Procedure: as §1, §2, §3, §4

[32] = molecular target: T32, TYK2 (Homo sapiens, UniProt P29597)
T32 construct: made in house; host or cells: E. coli BL21-derived host (T7 phage) or HEK-293
Procedure: as §1, §2, §3, §4

[33] = molecular target: T33, BMPR2 (Homo sapiens, UniProt Q13873)
T33 construct: made in house; host or cells: E. coli BL21-derived host (T7 phage) or HEK-293
Procedure: as §1, §2, §3, §4

[34] = molecular target: T34, MET (Homo sapiens, UniProt P08581)
T34 construct: made in house; host or cells: E. coli BL21-derived host (T7 phage) for most kinases, HEK-293 for the rest
Procedure: as §1, §2, §3, §4

[35] = molecular target: T35, VEGFR2 (Homo sapiens, UniProt P35968)
T35 construct: made in house; host or cells: E. coli BL21-derived host (T7 phage) or HEK-293
Procedure: as §1, §2, §3, §4

[36] = molecular target: T36, PLK1 (Homo sapiens, UniProt P53350)
T36 construct: made in house; host or cells: E. coli BL21-derived host (T7 phage) or HEK-293
Procedure: as §1, §2, §3, §4

[37] = molecular target: T37, PDPK1 (Homo sapiens, UniProt O15530)
T37 construct: made in house; host or cells: E. coli BL21-derived host (T7 phage) for most kinases, HEK-293 for the rest
Procedure: as §1, §2, §3, §4

T30 sequence (Q8NI60 163-647): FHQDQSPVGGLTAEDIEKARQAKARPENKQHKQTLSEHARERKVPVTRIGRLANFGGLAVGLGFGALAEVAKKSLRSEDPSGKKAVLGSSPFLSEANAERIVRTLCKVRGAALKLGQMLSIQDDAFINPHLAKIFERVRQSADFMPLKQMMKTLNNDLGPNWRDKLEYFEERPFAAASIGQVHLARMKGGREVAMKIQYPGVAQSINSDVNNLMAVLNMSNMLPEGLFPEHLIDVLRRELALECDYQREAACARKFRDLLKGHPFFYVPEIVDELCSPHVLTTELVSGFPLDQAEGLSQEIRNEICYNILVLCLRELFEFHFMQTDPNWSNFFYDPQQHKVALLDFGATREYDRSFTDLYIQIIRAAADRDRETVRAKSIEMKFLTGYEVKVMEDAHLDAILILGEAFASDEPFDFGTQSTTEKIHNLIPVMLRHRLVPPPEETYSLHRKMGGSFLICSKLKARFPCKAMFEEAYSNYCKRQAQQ
T13 sequence (Q16539 whole entry): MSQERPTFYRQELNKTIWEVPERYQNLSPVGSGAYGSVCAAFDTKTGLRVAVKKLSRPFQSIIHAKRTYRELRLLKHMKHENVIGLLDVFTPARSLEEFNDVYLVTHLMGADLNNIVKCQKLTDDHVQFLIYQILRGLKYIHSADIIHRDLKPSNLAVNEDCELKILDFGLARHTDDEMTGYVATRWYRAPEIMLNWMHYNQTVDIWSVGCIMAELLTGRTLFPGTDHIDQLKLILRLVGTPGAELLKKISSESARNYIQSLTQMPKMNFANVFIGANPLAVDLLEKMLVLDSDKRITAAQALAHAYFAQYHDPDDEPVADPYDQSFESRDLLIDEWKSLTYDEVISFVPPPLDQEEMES
T16 sequence (P48730 whole entry): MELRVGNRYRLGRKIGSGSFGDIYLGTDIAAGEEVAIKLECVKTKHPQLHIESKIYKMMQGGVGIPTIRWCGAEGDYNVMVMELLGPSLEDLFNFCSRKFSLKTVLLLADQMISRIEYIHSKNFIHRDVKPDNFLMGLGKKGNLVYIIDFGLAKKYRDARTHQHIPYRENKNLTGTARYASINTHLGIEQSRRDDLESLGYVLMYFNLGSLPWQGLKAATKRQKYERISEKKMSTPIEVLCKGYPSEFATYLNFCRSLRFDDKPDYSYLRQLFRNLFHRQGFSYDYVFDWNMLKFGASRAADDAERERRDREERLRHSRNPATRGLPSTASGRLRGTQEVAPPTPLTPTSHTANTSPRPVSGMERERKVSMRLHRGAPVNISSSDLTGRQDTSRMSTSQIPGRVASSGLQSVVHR
T10 sequence (P42336 whole entry): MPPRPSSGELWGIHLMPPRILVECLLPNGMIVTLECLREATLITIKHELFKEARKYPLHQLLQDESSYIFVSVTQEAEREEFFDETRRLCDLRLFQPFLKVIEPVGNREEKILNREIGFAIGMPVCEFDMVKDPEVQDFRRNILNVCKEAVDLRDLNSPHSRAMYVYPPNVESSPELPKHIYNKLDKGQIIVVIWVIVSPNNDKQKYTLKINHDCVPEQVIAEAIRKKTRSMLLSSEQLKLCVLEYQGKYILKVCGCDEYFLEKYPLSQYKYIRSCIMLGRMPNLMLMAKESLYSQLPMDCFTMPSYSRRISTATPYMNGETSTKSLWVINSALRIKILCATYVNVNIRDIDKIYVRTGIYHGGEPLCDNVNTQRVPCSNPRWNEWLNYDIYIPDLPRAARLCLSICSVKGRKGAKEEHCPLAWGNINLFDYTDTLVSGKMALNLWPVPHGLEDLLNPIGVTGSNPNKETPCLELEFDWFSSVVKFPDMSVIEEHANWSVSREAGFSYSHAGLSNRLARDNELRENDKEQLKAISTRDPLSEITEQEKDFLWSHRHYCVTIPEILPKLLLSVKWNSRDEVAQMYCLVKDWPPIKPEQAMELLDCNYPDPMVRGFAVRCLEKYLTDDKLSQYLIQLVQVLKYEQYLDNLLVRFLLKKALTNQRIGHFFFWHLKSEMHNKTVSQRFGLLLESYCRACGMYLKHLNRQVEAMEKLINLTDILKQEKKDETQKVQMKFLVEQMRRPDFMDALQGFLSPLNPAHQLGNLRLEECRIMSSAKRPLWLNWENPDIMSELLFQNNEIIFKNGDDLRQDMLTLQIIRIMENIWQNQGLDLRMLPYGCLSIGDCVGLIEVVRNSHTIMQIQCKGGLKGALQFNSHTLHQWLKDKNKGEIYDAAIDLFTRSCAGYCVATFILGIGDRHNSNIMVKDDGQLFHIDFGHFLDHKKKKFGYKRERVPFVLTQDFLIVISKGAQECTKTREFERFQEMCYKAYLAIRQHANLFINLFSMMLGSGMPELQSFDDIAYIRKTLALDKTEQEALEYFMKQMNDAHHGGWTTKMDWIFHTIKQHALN
T15 sequence (P36897 34-503): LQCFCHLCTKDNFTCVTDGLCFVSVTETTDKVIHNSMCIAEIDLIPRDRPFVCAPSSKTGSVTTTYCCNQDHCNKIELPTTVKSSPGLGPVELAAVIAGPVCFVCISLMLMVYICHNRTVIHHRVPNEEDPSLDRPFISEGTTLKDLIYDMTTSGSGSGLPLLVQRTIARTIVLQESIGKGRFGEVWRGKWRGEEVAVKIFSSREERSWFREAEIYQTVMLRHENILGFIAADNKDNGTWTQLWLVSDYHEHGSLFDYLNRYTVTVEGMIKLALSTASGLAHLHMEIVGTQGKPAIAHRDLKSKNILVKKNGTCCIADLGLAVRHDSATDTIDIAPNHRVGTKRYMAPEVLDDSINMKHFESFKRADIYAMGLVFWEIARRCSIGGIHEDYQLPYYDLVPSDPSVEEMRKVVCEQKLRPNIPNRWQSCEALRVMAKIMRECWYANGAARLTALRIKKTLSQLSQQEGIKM
T11 sequence (P49841 whole entry): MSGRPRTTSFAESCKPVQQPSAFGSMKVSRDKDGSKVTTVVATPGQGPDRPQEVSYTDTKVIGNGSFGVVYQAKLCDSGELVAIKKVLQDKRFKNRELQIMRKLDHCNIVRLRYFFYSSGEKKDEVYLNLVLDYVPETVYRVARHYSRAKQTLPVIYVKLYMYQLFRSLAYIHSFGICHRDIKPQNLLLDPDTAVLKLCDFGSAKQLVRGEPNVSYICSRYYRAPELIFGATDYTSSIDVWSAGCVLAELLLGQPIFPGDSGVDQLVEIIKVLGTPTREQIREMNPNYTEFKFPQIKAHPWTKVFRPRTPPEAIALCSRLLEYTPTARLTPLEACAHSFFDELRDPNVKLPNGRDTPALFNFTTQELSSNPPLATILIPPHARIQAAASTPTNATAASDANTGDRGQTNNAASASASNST
T27 sequence (P06213 28-1382): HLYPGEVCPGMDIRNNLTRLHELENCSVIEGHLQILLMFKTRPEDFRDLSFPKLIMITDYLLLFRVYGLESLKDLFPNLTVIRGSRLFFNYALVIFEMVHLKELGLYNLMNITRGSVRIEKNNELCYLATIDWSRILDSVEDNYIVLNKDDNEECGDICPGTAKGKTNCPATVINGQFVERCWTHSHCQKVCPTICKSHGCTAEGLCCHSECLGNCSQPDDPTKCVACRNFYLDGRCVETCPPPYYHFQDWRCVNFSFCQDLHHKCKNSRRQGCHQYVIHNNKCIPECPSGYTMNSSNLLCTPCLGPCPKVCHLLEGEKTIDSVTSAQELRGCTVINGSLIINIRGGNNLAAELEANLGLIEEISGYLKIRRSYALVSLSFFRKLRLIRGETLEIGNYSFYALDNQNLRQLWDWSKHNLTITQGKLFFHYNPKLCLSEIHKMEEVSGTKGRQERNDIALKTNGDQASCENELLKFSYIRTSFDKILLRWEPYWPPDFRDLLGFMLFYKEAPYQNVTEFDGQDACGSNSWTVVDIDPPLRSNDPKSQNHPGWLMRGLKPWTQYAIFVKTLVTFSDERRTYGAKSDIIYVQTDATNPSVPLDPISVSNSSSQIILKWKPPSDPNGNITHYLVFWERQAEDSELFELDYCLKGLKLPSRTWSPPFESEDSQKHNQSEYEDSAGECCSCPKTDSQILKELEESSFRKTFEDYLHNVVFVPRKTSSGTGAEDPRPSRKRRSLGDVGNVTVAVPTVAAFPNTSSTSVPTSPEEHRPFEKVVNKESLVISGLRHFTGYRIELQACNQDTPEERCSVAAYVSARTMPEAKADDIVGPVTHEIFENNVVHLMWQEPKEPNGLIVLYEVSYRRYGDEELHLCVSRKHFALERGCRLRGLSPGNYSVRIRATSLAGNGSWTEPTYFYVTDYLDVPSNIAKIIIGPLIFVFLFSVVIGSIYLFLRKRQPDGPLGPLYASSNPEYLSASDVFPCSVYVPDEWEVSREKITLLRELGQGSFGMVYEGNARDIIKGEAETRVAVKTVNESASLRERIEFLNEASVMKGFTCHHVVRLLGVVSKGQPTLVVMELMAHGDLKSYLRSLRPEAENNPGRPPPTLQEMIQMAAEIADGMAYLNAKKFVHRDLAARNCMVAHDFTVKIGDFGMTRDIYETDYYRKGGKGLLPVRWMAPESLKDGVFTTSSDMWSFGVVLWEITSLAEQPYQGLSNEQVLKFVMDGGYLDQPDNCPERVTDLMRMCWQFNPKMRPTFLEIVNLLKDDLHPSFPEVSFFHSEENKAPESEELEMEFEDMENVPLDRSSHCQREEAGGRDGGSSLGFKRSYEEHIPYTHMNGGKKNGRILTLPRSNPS
T5 sequence (Q9BXA7 whole entry): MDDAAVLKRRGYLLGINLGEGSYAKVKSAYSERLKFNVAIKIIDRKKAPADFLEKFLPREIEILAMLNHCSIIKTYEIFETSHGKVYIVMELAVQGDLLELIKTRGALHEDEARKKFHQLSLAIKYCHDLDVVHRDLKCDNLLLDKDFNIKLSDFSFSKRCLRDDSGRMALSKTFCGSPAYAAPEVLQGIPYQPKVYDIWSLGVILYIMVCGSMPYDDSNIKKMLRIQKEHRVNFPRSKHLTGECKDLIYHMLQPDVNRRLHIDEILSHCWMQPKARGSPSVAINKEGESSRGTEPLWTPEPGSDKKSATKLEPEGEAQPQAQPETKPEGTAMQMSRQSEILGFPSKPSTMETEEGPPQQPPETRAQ

CCN1CCN(c2ccc(Nc3ncnc(N(C)C(=O)Nc4c(Cl)c(OC)c(Cl)c(OC)c4Cl)n3)cc2)CC1 [MPT0L145, 1-(4-((4-(4-ethylpiperazin-1-yl)phenyl)amino)-1,3,5-triazin-2-yl)-1-methyl-3-(2,4,6-trichloro-3,5-dimethoxyphenyl)urea]
Kd [1]: > 10 µM | Kd [2]: > 10 µM | Kd [3]: > 10 µM | Kd [4]: > 10 µM | Kd [5]: > 10 µM | Kd [6]: > 10 µM | Kd [7]: > 10 µM | Kd [8]: 0.13 µM | Kd [9]: > 10 µM | Kd [10]: > 10 µM | Kd [11]: > 10 µM | Kd [12]: > 10 µM | Kd [13]: > 10 µM | Kd [14]: > 10 µM | Kd [15]: > 10 µM | Kd [16]: > 10 µM | Kd [17]: 1.3 µM | Kd [18]: > 10 µM | Kd [19]: > 10 µM | Kd [20]: > 10 µM | Kd [21]: 0.68 µM | Kd [22]: > 10 µM | Kd [23]: > 10 µM | Kd [24]: > 10 µM | Kd [25]: > 10 µM | Kd [26]: > 10 µM | Kd [27]: > 10 µM | Kd [28]: > 10 µM | Kd [29]: > 10 µM | Kd [30]: > 10 µM | Kd [31]: > 10 µM | Kd [32]: 0.66 µM | Kd [33]: > 10 µM | Kd [34]: > 10 µM | Kd [35]: 3.1 µM | Kd [36]: > 10 µM | Kd [37]: > 10 µM
